In PubChem BioAssay AID180 (DTP/NCI, 2004) one finds T/C data, which are given here for 15 molecules.

Where “and” joins values, the source holds several entries; their conditions need not be identical. Equal entries are not always repeated.

This assay relates to BDF1 mice, Adenocarcinoma 755 s.c., tumor weight T/C. Put plainly: NCI In Vivo Anticancer Drug Screen. Data for tumor model Adenocarcinoma 755 (subcutaneous) in B6D2F1 (BDF1) mice. Conditions: endpoint: mean tumor weight, higher = larger tumour. The essentials: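 In vivo antitumor screen on a transplantable tumor line. Result equals the measure in compound-treated animals divided by the same measure in vehicle controls.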

[1] abbreviates: dose: 25.0 mg/kg/injection, schedule: Q01DX011 (ip), vehicle: methylcellulose (MC).
Where [2] appears, read: dose: 125.0 mg/kg/injection, schedule: Q01DX011 (ip), vehicle: methylcellulose (MC).
Setting [3] is: dose: 250.0 mg/kg/injection, schedule: Q01DX011 (ip), vehicle: methylcellulose (MC).
The mark [4] stands for this setting: dose: 50.0 mg/kg/injection, schedule: Q01DX011 (ip), vehicle: carboxymethylcellulose (CMC).
Where [5] appears, read: dose: 100.0 mg/kg/injection, schedule: Q01DX011 (sc), vehicle: steriod suspending solution.

Usually T/C stands for the ratio of treated to control. Take `O=C(CCl)N1c2ccccc2Oc2cc3ccccc3cc21`: the T/C was 78 % of control (dose: 4.4 mg/kg/injection, schedule: Q01DX011 (ip), vehicle: methylcellulose (MC)); 62 % of control (dose: 6.6 mg/kg/injection, schedule: Q01DX011 (ip), vehicle: methylcellulose (MC)); 54 % of control (dose: 10.0 mg/kg/injection, schedule: Q01DX011 (ip), vehicle: methylcellulose (MC)); 45 % of control (dose: 14.0 mg/kg/injection, schedule: Q01DX011 (ip), vehicle: methylcellulose (MC)); 120 % of control (dose: 14.0 mg/kg/injection, schedule: Q01DX011 (ip), vehicle: other); 33 % of control (dose: 28.0 mg/kg/injection, schedule: Q01DX011 (ip), vehicle: methylcellulose (MC)). Besides, the T/C is 87 % of control (dose: 28.0 mg/kg/injection, schedule: Q01DX011 (ip), vehicle: other); 61 % of control (dose: 56.0 mg/kg/injection, schedule: Q01DX011 (ip), vehicle: other); 94 % of control (dose: 112.0 mg/kg/injection, schedule: Q01DX011 (ip), vehicle: other).
Take `Nc1nc2c(nc(I)n2C2OC(CO)C(O)C2O)c(=O)[nH]1` (centres undefined): the T/C is 94 % of control (dose: 30.0 mg/kg/injection, schedule: Q01DX011 (ip), vehicle: carboxymethylcellulose (CMC)); 87 % of control (dose: 60.0 mg/kg/injection, schedule: Q01DX011 (ip), vehicle: carboxymethylcellulose (CMC)); 26 % of control (dose: 120.0 mg/kg/injection, schedule: Q01DX011 (ip), vehicle: carboxymethylcellulose (CMC)); 40 % of control (dose: 240.0 mg/kg/injection, schedule: Q01DX011 (ip), vehicle: carboxymethylcellulose (CMC)).
Regarding `Cn1c(=O)c2[nH]c(NN)nc2n(C)c1=O`, the T/C under setting [1] was 66 % of control.
Regarding `CCCCC(CCCC)(C(=O)OCC)C(=O)OCC`, the T/C was 65 % of control (dose: 40.6 mg/kg/injection, schedule: Q01DX011 (ip), vehicle: methylcellulose (MC)); 63 % of control (dose: 81.25 mg/kg/injection, schedule: Q01DX011 (ip), vehicle: methylcellulose (MC)); 52 % of control (dose: 162.5 mg/kg/injection, schedule: Q01DX011 (ip), vehicle: methylcellulose (MC)).
On to `CC(C)CN1CC(C)C(=O)N(c2ccccc2)C1=O` (centres undefined), for which the T/C reads like this: (dose: 15.0 mg/kg/injection, schedule: Q01DX011 (ip), vehicle: methylcellulose (MC)) 61 % of control; (dose: 31.0 mg/kg/injection, schedule: Q01DX011 (ip), vehicle: methylcellulose (MC)) 66 % of control; (dose: 62.0 mg/kg/injection, schedule: Q01DX011 (ip), vehicle: methylcellulose (MC)) 73 % of control; under setting [2], 75 % of control; under setting [3], 68 % of control.
`CCCOC(=O)C1(N)CCCC1`: the T/C is 79 % of control (dose: 12.5 mg/kg/injection, schedule: Q01DX011 (ip), vehicle: carboxymethylcellulose (CMC)); 44 % of control (dose: 25.0 mg/kg/injection, schedule: Q01DX011 (ip), vehicle: carboxymethylcellulose (CMC)); 24 % of control under setting [4]; 7 % of control (dose: 100.0 mg/kg/injection, schedule: Q01DX011 (ip), vehicle: carboxymethylcellulose (CMC)).
In the case of `CC12CCC(=O)C=C1CCC1C2C(O)CC2(C)C(O)CCC12` (centres undefined), the T/C runs as follows: (dose: 25.0 mg/kg/injection, schedule: Q01DX011 (sc), vehicle: steriod suspending solution) 73 % of control; under setting [5], 97 % of control; (dose: 300.0 mg/kg/injection, schedule: Q01DX011 (sc), vehicle: steriod suspending solution) 84 % of control.
`Nc1cccc2c(=O)[nH][nH]c(=O)c12`: the T/C (dose: 62.5 mg/kg/injection, schedule: Q01DX011 (ip), vehicle: water) is 71 % of control; the T/C (dose: 125.0 mg/kg/injection, schedule: Q01DX011 (ip), vehicle: water) was 82 % of control; the T/C (dose: 250.0 mg/kg/injection, schedule: Q01DX011 (ip), vehicle: water) was 59 % of control.
`Cn1c(=O)c2c(ncn2CC(=O)O)n(C)c1=O`: the T/C runs as follows: (dose: 63.0 mg/kg/injection, schedule: Q01DX011 (ip), vehicle: methylcellulose (MC)) 106 % of control; under setting [2], 89 % of control; under setting [3], 112 % of control; (dose: 500.0 mg/kg/injection, schedule: Q01DX011 (ip), vehicle: methylcellulose (MC)) 117 % of control.
On to `CCC(C)Cn1cnc2c(SCC(=O)O)nc(N)nc21` (centres undefined), for which the T/C under setting [1] is 78 % of control; the T/C (dose: 80.0 mg/kg/injection, schedule: Q01DX011 (ip), vehicle: methylcellulose (MC)) was 43 % of control; the T/C under setting [3] is 45 % of control.
Regarding `S=C(N=Nc1ccccc1)NNc1ccccc1`, the T/C reads like this: under setting [4], 113 % of control; (dose: 75.0 mg/kg/injection, schedule: Q01DX011 (ip), vehicle: carboxymethylcellulose (CMC)) 152 % of control.
Take `Clc1ncnc2c1ncn2C1CCCCO1` (centres undefined): the T/C was 72 % of control (dose: 31.0 mg/kg/injection, schedule: Q01DX011 (ip), vehicle: other) and 7 % of control (dose: 62.0 mg/kg/injection, schedule: Q01DX011 (ip), vehicle: other).
For `Cc1ccc(CSc2ncnc3nc[nH]c23)c2ccccc12`, the T/C runs as follows: (dose: 75.0 mg/kg/injection, schedule: Q01DX011 (ip), vehicle: methylcellulose (MC)) 54 % of control; (dose: 150.0 mg/kg/injection, schedule: Q01DX011 (ip), vehicle: methylcellulose (MC)) 33 % of control; (dose: 300.0 mg/kg/injection, schedule: Q01DX011 (ip), vehicle: methylcellulose (MC)) 38 % of control; (dose: 600.0 mg/kg/injection, schedule: Q01DX011 (ip), vehicle: methylcellulose (MC)) 11 % of control.
For `c1nc(SC2=NCCN2)c2[nH]cnc2n1`, the T/C (dose: 0.22 mg/kg/injection, schedule: Q01DX011 (ip), vehicle: saline) was 104 % of control; the T/C (dose: 0.45 mg/kg/injection, schedule: Q01DX011 (ip), vehicle: saline) is 72 % of control; the T/C (dose: 0.45 mg/kg/injection, schedule: Q01DX011 (oral), vehicle: saline) was 100 % of control; the T/C (dose: 0.65 mg/kg/injection, schedule: Q01DX011 (ip), vehicle: saline) was 71 % of control; the T/C (dose: 0.9 mg/kg/injection, schedule: Q01DX011 (ip), vehicle: saline) is 61 % of control; the T/C (dose: 0.9 mg/kg/injection, schedule: Q01DX011 (oral), vehicle: saline) was 73 % of control. Also, the T/C (dose: 1.3 mg/kg/injection, schedule: Q01DX011 (ip), vehicle: saline) is 74 % of control; the T/C (dose: 1.8 mg/kg/injection, schedule: Q01DX011 (ip), vehicle: saline) is 15 % of control; the T/C (dose: 1.8 mg/kg/injection, schedule: Q01DX011 (oral), vehicle: saline) was 48 % of control; the T/C (dose: 2.6 mg/kg/injection, schedule: Q01DX011 (ip), vehicle: saline) is 23 % of control; the T/C (dose: 2.62 mg/kg/injection, schedule: Q01DX011 (ip), vehicle: saline) was 4 % of control and 8 % of control; the T/C (dose: 3.6 mg/kg/injection, schedule: Q01DX011 (oral), vehicle: saline) is 21 % of control. The T/C (dose: 5.25 mg/kg/injection, schedule: Q01DX011 (ip), vehicle: saline) is 2 % of control and 3 % of control; the T/C (dose: 5.25 mg/kg/injection, schedule: Q01DX011 (oral), vehicle: saline) is 9 % of control; the T/C (dose: 8.0 mg/kg/injection, schedule: Q01DX001 (ip), vehicle: saline) was 38 % of control; the T/C (dose: 10.5 mg/kg/injection, schedule: Q01DX011 (ip), vehicle: saline) is 1 % of control and 2 % of control; the T/C (dose: 10.5 mg/kg/injection, schedule: Q01DX011 (oral), vehicle: saline) was 2 % of control; the T/C (dose: 16.0 mg/kg/injection, schedule: Q01DX001 (ip), vehicle: saline) is 57 % of control. The T/C (dose: 20.0 mg/kg/injection, schedule: Q01DX011 (ip), vehicle: saline) is 31 % of control; the T/C (dose: 21.0 mg/kg/injection, schedule: Q01DX011 (ip), vehicle: saline) was 2 % of control; the T/C (dose: 21.0 mg/kg/injection, schedule: Q01DX011 (oral), vehicle: saline) is 1 % of control; the T/C (dose: 30.0 mg/kg/injection, schedule: Q01DX011 (ip), vehicle: saline) is 14 % of control; the T/C (dose: 31.0 mg/kg/injection, schedule: Q01DX001 (ip), vehicle: saline) is 29 % of control; the T/C (dose: 62.0 mg/kg/injection, schedule: Q01DX001 (ip), vehicle: saline) was 38 % of control.
As to `C[C@]12CCC(=O)C=C1CC[C@@H]1[C@@H]2C(=O)C[C@@]2(C)[C@H]1CC[C@]2(O)C(=O)COS(=O)(=O)O`, the T/C runs as follows: (dose: 5.0 mg/kg/injection, schedule: Q01DX011 (sc), vehicle: steriod suspending solution) 100 % of control; (dose: 50.0 mg/kg/injection, schedule: Q01DX011 (sc), vehicle: steriod suspending solution) 91 % of control; under setting [5], 57 % of control.
